Laboratory results reported in patent publication US10100056B2, “SHIP1 modulators and methods related thereto” (Aquinox Pharmaceuticals (Canada) Inc., priority 2013, dated 2018).
Marks after values point to notes of the source that are not given here.

target: T1, His-hSHIP1 enzyme (Homo sapiens, UniProt Q92835); assay: His-hSHIP1 activity (phosphatase assay, IP4 substrate, Biomol Green); type: biochemical; parameters: key to Scoring, Approach 2 (Initial velocity Ratio): +++: higher than reference or reference - 15%; ++: reference - 16% to reference - 30%; +: reference - 31% or lower; −: inhibitor; conditions: first approach: IP4 50 μM, test compound 0-300 μM; values marked with asterisk
T1 construct: His
T1 sequence (Q92835 1-1189): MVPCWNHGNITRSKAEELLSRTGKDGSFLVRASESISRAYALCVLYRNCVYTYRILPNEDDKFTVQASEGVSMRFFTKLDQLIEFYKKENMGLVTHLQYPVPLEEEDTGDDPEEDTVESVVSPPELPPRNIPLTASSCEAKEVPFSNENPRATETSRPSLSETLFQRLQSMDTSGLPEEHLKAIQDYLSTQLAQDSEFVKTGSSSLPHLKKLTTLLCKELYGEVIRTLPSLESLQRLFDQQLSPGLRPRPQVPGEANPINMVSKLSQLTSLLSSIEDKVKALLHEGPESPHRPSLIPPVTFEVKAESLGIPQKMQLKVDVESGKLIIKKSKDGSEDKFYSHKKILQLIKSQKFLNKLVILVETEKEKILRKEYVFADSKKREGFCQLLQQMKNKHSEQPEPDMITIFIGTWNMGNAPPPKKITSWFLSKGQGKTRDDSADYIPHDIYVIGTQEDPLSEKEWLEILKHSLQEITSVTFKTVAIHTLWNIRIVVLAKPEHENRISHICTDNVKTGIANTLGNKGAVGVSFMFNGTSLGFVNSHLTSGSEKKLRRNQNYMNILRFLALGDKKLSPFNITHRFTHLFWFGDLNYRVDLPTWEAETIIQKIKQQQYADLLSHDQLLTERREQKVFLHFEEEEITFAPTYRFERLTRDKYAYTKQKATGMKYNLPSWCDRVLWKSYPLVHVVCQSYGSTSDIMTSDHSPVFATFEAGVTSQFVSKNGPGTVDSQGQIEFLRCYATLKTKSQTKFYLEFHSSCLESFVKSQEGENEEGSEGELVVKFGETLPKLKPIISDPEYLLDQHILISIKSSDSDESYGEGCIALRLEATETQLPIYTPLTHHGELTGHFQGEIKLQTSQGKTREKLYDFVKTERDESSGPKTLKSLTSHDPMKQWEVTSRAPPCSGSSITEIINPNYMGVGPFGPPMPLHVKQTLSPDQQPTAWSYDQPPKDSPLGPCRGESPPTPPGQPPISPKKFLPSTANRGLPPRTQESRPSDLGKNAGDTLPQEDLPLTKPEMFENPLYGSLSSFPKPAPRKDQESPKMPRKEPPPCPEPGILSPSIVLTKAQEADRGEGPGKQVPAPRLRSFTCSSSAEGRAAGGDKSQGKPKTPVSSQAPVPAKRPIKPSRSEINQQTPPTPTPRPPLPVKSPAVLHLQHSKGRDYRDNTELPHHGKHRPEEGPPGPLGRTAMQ
Experimental: Test compounds are dissolved in 95% ethanol to form stock solutions. Before screening, the stock solutions are diluted with Phosphatase Assay Buffer (20 mM Tris-HCL, 10 mM MgCl2 pH 7.5, 0.02% Tween 20) to form working assay solutions that contain 10% ethanol. The assay is carried out on 96-well microtiter plates using a modified procedure of that reported by Ong et al., Blood 110, 1942-1949, 2007 and Yang et al., Org Lett 7, 1073-1076, 2005, both of which references are incorporated herein by reference in their entirety.
Data were generated by one of two variant methods. Test compounds are screened by one of two approaches described as follows. In the first approach, each reaction contains 5 μL of His-hSHIP1 enzyme (5-20 ng), 10 μL of the substrate, 1,3,4,5-inositol tetrakisphosphate (IP4; 50 μM final), 5 μL of Phosphatase Assay Buffer, and 5 µL of test compound at various concentrations in 10% ethanol (0-300 μM final). Control blanks are also prepared by replacing His-hSHIP1 enzyme, IP4, or test compounds with Phosphatase Assay Buffer. After adding the reaction components in a 96-well microtiter plate on ice, the reaction is mixed by briefly shaking the plate vigorously. The reaction is then incubated at 37° C. for 15 min with gentle shaking followed by addition of 100 μL of Biomol Green Reagent (BIOMOL, PA, USA) to terminate the reaction. The free phosphate released from IP4 by His-hSHIP1 binds to the Biomol Green Reagent, which turns the dye to green color. After incubating the mixture for 20 min at room temperature for color development, the absorbance is read with SpectraMax Plus 96-well plate reader (Molecular Devices, Sunnyvale, Calif., USA) at a wavelength of 650 nm.
In the second approach, a master mix is prepared that contains 50 μL of His-hSHIP1 enzyme (0.4-1.6 ng/μL final), 25 μL of the substrate, IP4 (25 or 250 μM final), and 50 μL of test compound in 3.3% ethanol (100 μL final). Control blanks are also prepared by replacing His-hSHIP1 enzyme, IP4, or test compounds with Phosphate Assay Buffer. […] Each reaction component is preincubated at 37° C. for 30 min before adding to a 96-well microtiter plate. The master mix is then incubated at 37° C. At time 0, 20, and 30 min, 25 μL of the master mix is removed and transferred to a new 96-well microtiter plate, to which 100 μL of Biomol Green Reagent is added to stop the reaction. After incubating the mixture for 20 min at room temperature for color development, the absorbance is read with SpectraMax Plus 96-well plate reader at a wavelength of 650 nm. Phosphate released is plotted against time to calculate the initial velocities (i.e., slope of the graph) at each IP4 concentration. The initial velocities are baseline corrected and the ratio of initial velocities (IP425/IP4250) is calculated and used to rate the test compounds.

SMILES	Scoring, Approach 1 (% increase relative to background)
C=C1CC[C@H]2[C@H](CO)[C@@H]([C@@]3(C)CC[C@H](N)C[C@@H]3CO)CC[C@]12C [Cpd. No. 63, ((1S,2R,5S)-5-amino-2-((3aS,4R,5S,7aS)-4-(hydroxymethyl)-7a-methyl-1-methyleneoctahydro-1H-inden-5-yl)-2-methylcyclohexyl)methanol]	++* (50 ≤ x < 65)

same assay, conditions: second approach: ratio of initial velocities IP4 25/250 μM compared with reference compound; values without asterisk

SMILES	Scoring, Approach 2 (Initial velocity Ratio)
CNC[C@H]1C2=C(CC[C@@H]1[C@@]1(C)CC[C@H](O)C[C@@H]1CO)C(C)(C)CC2 [Cpd. No. 5, (1S,3S,4R)-4-((4R,5S)-1,1-dimethyl-4-((methylamino)methyl)-2,3,4,5,6,7-hexahydro-1H-inden-5-yl)-3-(hydroxymethyl)-4-methylcyclohexanol]	+++
CC1(C)CCC2=C1CC[C@H]([C@@]1(C)CC[C@H](O)C[C@@H]1CO)[C@H]2CNS(C)(=O)=O [Cpd. No. 7, N-(((4R,5S)-5-((1R,2S,4S)-4-hydroxy-2-(hydroxymethyl)-1-methylcyclohexyl)-1,1-dimethyl-2,3,4,5,6,7-hexahydro-1H-inden-4-yl)methyl)methanesulfonamide]	+
CC1(C)CCC2=C1CC[C@H]([C@@]1(C)CC[C@H](O)C[C@@H]1CO)[C@H]2CNC(=O)c1ccccc1 [Cpd. No. 8, N-(((4R,5S)-5-((1R,2S,4S)-4-hydroxy-2-(hydroxymethyl)-1-methylcyclohexyl)-1,1-dimethyl-2,3,4,5,6,7-hexahydro-1H-inden-4-yl)methyl)benzamide]	+
C=C1CC[C@H]2[C@H](CNCc3ccc(F)cc3)[C@@H]([C@@]3(C)CC[C@H](O)C[C@@H]3CO)CC[C@]12C [Cpd. No. 10, (1S,3S,4R)-4-((3aS,4R,5S,7aS)-4-((4-fluorobenzylamino)methyl)-7a-methyl-1-methyleneoctahydro-1H-inden-5-yl)-3-(hydroxymethyl)-4-methylcyclohexanol]	−
C=C1CC[C@H]2[C@H](CNCc3ccccc3C)[C@@H]([C@@]3(C)CC[C@H](O)C[C@@H]3CO)CC[C@]12C [Cpd. No. 15, (1S,3S,4R)-3-(hydroxymethyl)-4-methyl-4-((3aS,4R,5S,7aS)-7a-methyl-4-((2-methylbenzylamino)methyl)-1-methyleneoctahydro-1H-inden-5-yl)cyclohexanol]	++
C=C1CC[C@H]2[C@H](Cn3cccn3)[C@@H]([C@@]3(C)CC[C@H](O)C[C@@H]3CO)CC[C@]12C [Cpd. No. 26, (1S,3S,4R)-4-((3aS,4R,5S,7aS)-4-((1H-pyrazol-1-yl)methyl)-7a-methyl-1-methyleneoctahydro-1H-inden-5-yl)-3-(hydroxymethyl)-4-methylcyclohexanol]	++
C=C1CC[C@H]2[C@H](CNCc3ccc4c(c3)OC(F)(F)O4)[C@@H]([C@@]3(C)CC[C@H](O)C[C@@H]3CO)CC[C@]12C [Cpd. No. 37, (1S,3S,4R)-4-((3aS,4R,5S,7aS)-4-(((2,2-difluorobenzo[d][1,3]dioxol-5-yl)methylamino)methyl)-7a-methyl-1-methyleneoctahydro-1H-inden-5-yl)-3-(hydroxymethyl)-4-methylcyclohexanol]	++
C=C1CC[C@H]2[C@H](CCN(Cc3ccc(OC)cc3)Cc3ccc(OC)cc3)[C@@H]([C@@]3(C)CC[C@H](O)C[C@@H]3O)CC[C@]12C [Cpd. No. 43, (1S,3S,4R)-4-((3aS,4S,5S,7aS)-4-(2-(bis(4-methoxybenzyl)amino)ethyl)-7a-methyl-1-methyleneoctahydro-1H-inden-5-yl)-4-methylcyclohexane-1,3-diol]	++
C=C1CC[C@H]2[C@H](CCNCc3ccc(OC)cc3)[C@@H]([C@@]3(C)CC[C@H](O)C[C@@H]3O)CC[C@]12C [Cpd. No. 44, (1S,3S,4R)-4-((3aS,4S,5S,7aS)-4-(2-(4-methoxybenzylamino)ethyl)-7a-methyl-1-methyleneoctahydro-1H-inden-5-yl)-4-methylcyclohexane-1,3-diol]	++
C=C1CC[C@H]2[C@H](CCNCc3ccc4c(c3)OCO4)[C@@H]([C@@]3(C)CC[C@H](O)C[C@@H]3O)CC[C@]12C [Cpd. No. 45, (1S,3S,4R)-4-((3aS,4S,5S,7aS)-4-(2-(benzo[d][1,3]dioxol-5-ylmethylamino)ethyl)-7a-methyl-1-methyleneoctahydro-1H-inden-5-yl)-4-methylcyclohexane-1,3-diol]	−
C=C1CC[C@H]2[C@H](CN)[C@@H]([C@@]3(C)CC[C@H](O)C[C@@H]3CN)CC[C@]12C [Cpd. No. 47, (1S,3S,4R)-3-(aminomethyl)-4-((3aS,4R,5S,7aS)-4-(aminomethyl)-7a-methyl-1-methyleneoctahydro-1H-inden-5-yl)-4-methylcyclohexanol]	+
C=C1CC[C@H]2[C@H](O)[C@@H]([C@@]3(C)CC[C@H](O)C[C@@H]3CCn3cccc3)CC[C@]12C [Cpd. No. 52, (3aR,4R,5R,7aS)-5-((1S,2S,4S)-2-(2-(1H-pyrrol-1-yl)ethyl)-4-hydroxy-1-methylcyclohexyl)-7a-methyl-1-methyleneoctahydro-1H-inden-4-ol]	−
C=C1CC[C@H]2[C@H](O)[C@@H]([C@@]3(C)CC[C@H](O)C[C@@H]3CCOc3cnccn3)CC[C@]12C [Cpd. No. 56, (3aR,4R,5R,7aS)-5-((1S,2S,4S)-4-hydroxy-1-methyl-2-(2-(pyrazin-2-yloxy)ethyl)cyclohexyl)-7a-methyl-1-methyleneoctahydro-1H-inden-4-ol]	−
C=C1CC[C@H]2[C@H](COCc3ccccn3)[C@@H]([C@@]3(C)CC[C@H](O)C[C@@H]3CO)CC[C@]12C [Cpd. No. 61, (1S,3S,4R)-3-(hydroxymethyl)-4-methyl-4-((3aS,4R,5S,7aS)-7a-methyl-1-methylene-4-((pyridin-2-ylmethoxy)methyl)octahydro-1H-inden-5-yl)cyclohexanol]	++
